Experiments:
Type in all cases: biochemical
MCAK (SEQ ID NO:22) = MCAK (SEQ ID NO:22) (Homo sapiens, UniProt Q99661); assay: MCAK motor domain ATPase assay; details: read-out: uKHC, nKHC, CENP-E, MKLP-1, KIF1B, MCAK ATPase IC50
KIF3A (SEQ ID NO:16) = target: T1, KIF3A (SEQ ID NO:16) (Homo sapiens, UniProt Q9Y496); assay: KIF3A motor domain ATPase assay; details: n = 2
T1 construct: His6 (printed only as 'H')

KSP (SEQ ID NO:15) = target: T2, KSP (SEQ ID NO:15) (Homo sapiens, UniProt P52732); assay: KSP motor domain ATPase assay; details: n = 2
T2 construct: His6 (printed only as 'H')
T2 sequence (P52732 with tags, fused parts or gaps): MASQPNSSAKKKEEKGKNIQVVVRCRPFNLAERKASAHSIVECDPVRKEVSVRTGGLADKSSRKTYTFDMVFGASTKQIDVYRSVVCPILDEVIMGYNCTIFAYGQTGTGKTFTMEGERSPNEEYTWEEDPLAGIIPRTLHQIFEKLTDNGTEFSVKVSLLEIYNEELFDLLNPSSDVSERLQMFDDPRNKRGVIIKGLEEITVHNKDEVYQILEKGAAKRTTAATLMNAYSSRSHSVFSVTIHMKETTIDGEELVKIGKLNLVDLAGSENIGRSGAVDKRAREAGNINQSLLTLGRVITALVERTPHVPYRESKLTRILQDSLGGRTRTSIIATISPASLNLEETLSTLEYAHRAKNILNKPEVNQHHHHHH

nKHC (SEQ ID NO:18) = target: T3, nKHC (SEQ ID NO:18) (Homo sapiens, UniProt Q12840); assay: nKHC motor domain ATPase assay; details: read-out: uKHC, nKHC, CENP-E, MKLP-1, KIF1B, MCAK ATPase IC50
T3 construct: His6 (printed only as 'H')
T3 sequence (Q12840 with tags, fused parts or gaps): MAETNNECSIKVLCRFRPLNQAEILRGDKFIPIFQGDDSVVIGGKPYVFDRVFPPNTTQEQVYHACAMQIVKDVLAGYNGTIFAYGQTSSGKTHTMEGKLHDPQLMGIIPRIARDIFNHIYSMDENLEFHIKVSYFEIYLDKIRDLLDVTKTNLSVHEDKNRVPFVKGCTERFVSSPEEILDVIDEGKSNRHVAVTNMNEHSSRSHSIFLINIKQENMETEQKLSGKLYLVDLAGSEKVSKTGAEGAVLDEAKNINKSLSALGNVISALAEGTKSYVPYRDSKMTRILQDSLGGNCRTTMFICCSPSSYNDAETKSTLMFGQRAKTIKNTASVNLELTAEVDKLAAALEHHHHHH

uKHC (SEQ ID NO:17) = target: T4, uKHC (SEQ ID NO:17) (Homo sapiens, UniProt P33176); assay: uKHC motor domain ATPase assay; details: read-out: uKHC, nKHC, CENP-E, MKLP-1, KIF1B, MCAK ATPase IC50
T4 construct: His6 (printed only as 'H')
T4 sequence (P33176 with tags, fused parts or gaps): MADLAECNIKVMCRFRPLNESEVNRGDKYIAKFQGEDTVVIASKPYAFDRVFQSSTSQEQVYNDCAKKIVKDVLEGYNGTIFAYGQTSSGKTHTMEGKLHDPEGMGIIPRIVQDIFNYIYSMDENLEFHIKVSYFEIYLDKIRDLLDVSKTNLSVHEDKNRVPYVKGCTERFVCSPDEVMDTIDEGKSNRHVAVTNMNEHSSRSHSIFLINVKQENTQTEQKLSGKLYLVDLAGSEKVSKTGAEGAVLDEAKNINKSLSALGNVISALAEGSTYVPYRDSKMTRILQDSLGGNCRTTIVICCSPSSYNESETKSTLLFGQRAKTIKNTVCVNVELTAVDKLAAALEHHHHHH

MKLP-1 (SEQ ID NO:20) = target: T5, MKLP-1 (SEQ ID NO:20) (Homo sapiens, UniProt Q02241); assay: MKLP-1 motor domain ATPase assay; details: read-out: uKHC, nKHC, CENP-E, MKLP-1, KIF1B, MCAK ATPase IC50
T5 construct: His6 (printed only as 'H')
T5 sequence (Q02241 with tags, fused parts or gaps): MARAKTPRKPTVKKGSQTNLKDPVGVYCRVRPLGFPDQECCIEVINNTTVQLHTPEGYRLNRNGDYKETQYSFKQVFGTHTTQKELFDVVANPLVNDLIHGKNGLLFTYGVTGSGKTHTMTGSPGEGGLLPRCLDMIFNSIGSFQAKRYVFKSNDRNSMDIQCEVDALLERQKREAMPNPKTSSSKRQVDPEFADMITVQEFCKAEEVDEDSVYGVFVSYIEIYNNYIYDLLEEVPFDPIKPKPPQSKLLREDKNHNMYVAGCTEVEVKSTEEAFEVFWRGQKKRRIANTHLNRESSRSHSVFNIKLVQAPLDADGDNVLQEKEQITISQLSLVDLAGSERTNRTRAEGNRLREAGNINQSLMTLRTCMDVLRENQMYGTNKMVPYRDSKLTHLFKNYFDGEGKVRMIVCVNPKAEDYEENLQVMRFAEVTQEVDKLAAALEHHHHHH

MCAK (SEQ ID NO:22), sequence (Q99661 183-646): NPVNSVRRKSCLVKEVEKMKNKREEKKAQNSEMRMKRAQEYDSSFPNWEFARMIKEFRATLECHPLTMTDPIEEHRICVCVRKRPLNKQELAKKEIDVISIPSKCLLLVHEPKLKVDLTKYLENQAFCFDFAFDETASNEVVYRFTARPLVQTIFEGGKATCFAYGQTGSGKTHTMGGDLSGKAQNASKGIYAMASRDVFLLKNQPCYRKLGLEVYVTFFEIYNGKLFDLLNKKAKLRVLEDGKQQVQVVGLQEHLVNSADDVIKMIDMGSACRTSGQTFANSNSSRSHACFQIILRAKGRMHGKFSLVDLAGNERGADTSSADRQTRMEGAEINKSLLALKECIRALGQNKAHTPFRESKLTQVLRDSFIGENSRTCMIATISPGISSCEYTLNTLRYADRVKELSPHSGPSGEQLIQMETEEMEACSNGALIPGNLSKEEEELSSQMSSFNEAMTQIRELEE
T1 sequence (Q9Y496 with tags, fused parts or gaps): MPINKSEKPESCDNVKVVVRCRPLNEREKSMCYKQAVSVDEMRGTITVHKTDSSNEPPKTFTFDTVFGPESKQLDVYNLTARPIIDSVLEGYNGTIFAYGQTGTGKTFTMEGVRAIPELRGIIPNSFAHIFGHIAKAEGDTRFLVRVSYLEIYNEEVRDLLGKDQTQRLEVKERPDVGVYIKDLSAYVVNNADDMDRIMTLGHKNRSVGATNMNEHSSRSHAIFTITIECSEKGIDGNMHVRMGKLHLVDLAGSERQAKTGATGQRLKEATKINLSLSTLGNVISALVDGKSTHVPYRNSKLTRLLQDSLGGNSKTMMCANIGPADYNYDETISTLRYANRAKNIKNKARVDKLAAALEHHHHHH

Row | Compound | IC50 (MCAK (SEQ ID NO:22)) | IC50 (KIF3A (SEQ ID NO:16)) | IC50 (KSP (SEQ ID NO:15)) | IC50 (nKHC (SEQ ID NO:18)) | IC50 (uKHC (SEQ ID NO:17)) | IC50 (MKLP-1 (SEQ ID NO:20))
1 | NC(=S)N/N=C\c1ccc(-c2ccccc2)cc1 [compound 1, 1,1′-biphenyl-4-carbaldehyde thiosemicarbazone] | > 40 µM | 0.631 µM | > 40 µM | > 40 µM | > 40 µM | > 40 µM
2 | CC(C)c1ccc(/C=N/NC(N)=S)cc1[N+](=O)[O-] [compound 4, 4-isopropyl-3-nitrobenzaldehyde thiosemicarbazone] | > 40 µM | 1.55 µM | 1.1 µM | > 40 µM | > 40 µM | > 40 µM
3 | NC(=S)N/N=C/c1ccc(C2CCCCC2)cc1 [compound 3, 4-cyclohexylbenzaldehyde thiosemicarbazone] | > 40 µM | 0.699 µM | 1.53 µM | > 40 µM | > 40 µM | > 40 µM
4 | CC(C)c1ccc(/C=N/NC(N)=S)cc1 [compound 2, 4-isopropylbenzaldehyde thiosemicarbazone] | > 40 µM | 31 µM | 25.1 µM | > 40 µM | > 40 µM | > 40 µM

Reference: US20070134660A1, “Methods for identifying modulators of kinesin activity” (ROSETTA INPHARMATICS LLC, priority 2003, published 2007)
